Measurements taken from patent publication US20150368617A1, “METHOD FOR FORMING ENDOTHELIAL CELLS” (Korea Advanced Institute of Science and Technology (KAIST), priority 2012, published 2015).

Columns and labels:
Flk1+ MPCs [1] = assay: Differentiation and expansion of ECs from Flk1+ MPCs in feeder cell-free 2D Matrigel system, FACS of CD31+/CD144+ ECs; assay type: cell-based, mouse; conditions: for EC population: other ROCK inhibitors
Protocol: E14tg2a ESC cell line was a generous gift from Dr. Jun K. Yamashita (Kyoto University), and R1 ESC cell line was purchased from American Type Cell Culture. Mouse iPSC derived from FVB strain was a generous gift from Drs. Hyun-Jai Cho and Hyo-Soo Kim (Seoul National University Hospital). To obtain Flk1+ MPCs, ESCs and iPSCs were cultured on 0.1% gelatin-coated plates at a density of 1-2×10^3 cells/cm^2 in differentiation medium [┌−minimal essential medium (Invitrogen) supplemented with 10% fetal bovine serum (FBS)] without leukemia inhibitory factor (LIF). At day 4.5, the Flk1+ MPCs were purified by AutoMACS™Pro Separator (Miltenyi Biotec) with biotin-conjugated anti-mouse Flk1 antibody (clone AVAS12a1, eBioscience) and streptavidin MicroBeads (Miltenyi Biotec). The Flk1+MPCs were then subsequently plated onto Matrigel (BD Biosciences)-coated plates at a density of 1˜2×10^4 cells/cm^2, and were cultured in differentiation medium supplemented with VEGF-A165 (50 ng/ml, Peprotech). To purify the ECs from the differentiating Flk1+ cells, the cells were first dissociated and resuspended in HBSS/2% FBS, and were serially incubated with anti-mouse ICAM2 antibody (rat monoclonal, clone 3C4, Biolegend) for 10 min and with anti-rat IgG Microbead (Miltenyi Biotec) for 15 min. […] VEGF-Trap was prepared as previously described. Various signaling inhibitors and activators including SB203580, PD98059, KT5720, Go6976, KT5823, LY294002, rapamycin, Y27632, SB431542, Rho-kinase inhibitor (RKI; H-1152, isoquinolinesulfonamide), and Rho-kinase inhibitor II (RKI-II; pyridyl urea) were purchased from Calbiochem and Sigma-Aldrich.
Cells were harvested with 0.25% trypsin-EDTA (Invitrogen) or dissociation buffer (Invitrogen) and resuspended in HBSS/2% FBS at 1×10^6 cells per 100┌ l. The cells were incubated for 20 min with the following antibodies: biotin-conjugated anti-mouse Flk1 (clone AVAS12a1, eBioscience), allophycocyanin (APC)-conjugated anti-mouse CD140a (clone APA5, eBioscience), phycoerythrin(PE)-conjugated anti-mouse CD31 (clone 390, eBioscience), Alexa Fluor® 647-conjugated anti-mouse CD144 (clone BV13, eBioscience), PE-conjugated anti-mouse D114 (clone HMD4-1, Biolegend), PE-conjugated anti-mouse Tie2 (clone TEK4, eBioscience), PE-conjugated anti-mouse Endoglin (clone MJ7/18, Biolegend), anti-mouse ICAM2 (clone 3C4, Biolegend), APC-conjugated anti-mouse CD140b (clone APBS, eBioscience), PE-conjugated anti-mouse LYVE1 (clone ALY7, eBioscience), anti-mouse VEGFR3 (goat polyclonal, R&D systems), anti-mouse EphB4 (clone VEB4-7E4, Hycult biotech), and PE-conjugated anti-mouse Notch1 (clone HMN1-12, Biolegend). After washing in HBSS/2% FBS twice, the cells were incubated with the following secondary antibodies: PE-conjugated streptavidin (eBioscience), PE-conjugated anti-rat IgG2a (eBioscience), and FITC-conjugated anti-goat IgG (Invitrogen). Dead cells were excluded by 7-aminoactinomycin D (7-AAD, Invitrogen).
Flk1+ MPCs derived from mouse ESCs are capable of differentiating into ECs, hematopoietic cells, mural cells (MCs), and cardiomyocytes. To avoid cell contamination from using feeder cells for differentiation of Flk1+ MPCs, we have established a feeder cell-free 2D Matrigel system (FIG. 1A). Flk1+ MPCs were differentiated from E14tg2a ESC cell line, and when the Flk1+ MPCs were purified at day 4.5 and cultured on Matrigel-coated plates in the differentiation medium, colonies of CD144+ ECs surrounded by ┌ SMA+MCs were formed (FIG. 1B). At day 6.5, population of CD144+/CD31+ ECs grown in differentiation medium was ˜4%, whereas the same EC population was increased up to ˜20% when VEGF-A (50 ng/ml) was supplemented (FIG. 1C). For following experiments, we chose to use 50 ng/ml of VEGF-A (hereafter referred to as VEGF-A) based on its maximal effect on differentiation and expansion of ECs from Flk1+ MPCs.

Flk1+ MPCs [2] = assay: Differentiation of MCs from Flk1+ MPCs, FACS of αSMA+ MCs; assay type: cell-based, mouse; conditions: Y27632 10 μM; ML7 5 μM
Protocol: FIGS. 11A-11D. ROCK suppression promotes the differentiation of ECs through PTEN-Akt signaling and inhibits the differentiation of MCs through MyPT-MLC signaling. (FIG. 11A) Representative FACS analysis of CD31+/CD144+ ECs incubated with 0.1% DMSO or LY294002 (20┌ M; LY) in the presence of PBS (Control) or Y27632 (10┌ M; Y). (FIG. 11B) % of CD31+/CD144+ EC population. Each group, n=3. *p<0.01 versus 0. Each group, n=3. *p<0.01 versus DMSO; ^#p<0.01 versus Y27632. (FIG. 11C) Representative FACS analysis of ┌ SMA+MCs or CD144+ ECs incubated with 0.1% DMSO or ML7 (5 ┌ M) in the presence of PBS (Control) or Y27632 (10┌ M). (FIG. 11D) % of ┌ SMA+MC population. Each group, n=3. *p<0.01 versus 0. Each group, n=3. *p<0.01 versus DMSO. n.s. represents statistically non-significant.
Analysis and sorting for CMs were performed at day 10.5. We harvested differentiated Flk1+ MPCs on OP9 cells with 0.25% trypsin-EDTA or dissociation buffer (Invitrogen). Cardiac troponin-T (cTnT)+ and ┌ smooth muscle actin (SMA)+ cells were analyzed after permeabilization using Cytofix/Cytoperm solution (BD Biosciences) for 15 min. After permeabilization, the cells were incubated for 30 min with anti-mouse cTnT (NeoMarkers) monoclonal antibody. […] Data were analyzed using FlowJo Version 7.5.4 software (TreeStar).

O=c1cc(N2CCOCC2)oc2c(-c3ccccc3)cccc12 [LY294002]
ROCK suppression-induced differentiation and expansion of ECs (Flk1+ MPCs [1]; LY294002 20 μM with Y27632 under VEGF-A stimulus): almost completely suppressed | CD31+/CD144+ EC population (Flk1+ MPCs [1]; inhibitor treated with VEGF-A, day 6.5): strongly reduced

O=S(=O)(c1cccc2c(I)cccc12)N1CCCNCC1 [ML7]
reduction of αSMA+MC population (Flk1+ MPCs [2]): ~31%

O=C(Nc1ccncc1)Nc1c(Cl)cc(Cl)cc1Cl [RKI-II]
EC population (Flk1+ MPCs [1]): similarly increased

Cc1cncc2cccc(S(=O)(=O)N3CCCNC[C@@H]3C)c12 [RKI]
EC population (Flk1+ MPCs [1]): similarly increased

VEGF-Trap: blocks the action of VEGF-A; prepared as previously described
ROCK suppression-induced expansion of ECs (Flk1+ MPCs [1]; pretreatment of VEGF-Trap (5 μg/ml) during differentiation): totally abolished
